Several values for one entry are separate records, joined by “and”; a condition that tells them apart may be missing. Equal entries are not always repeated. Toxic doses and inconclusive results are not listed. How the source made its calls: active means survival T/C of 150% or more; inactive means T/C below 125% in these data.
Tested on: CD2F1 mice, L1210 leukemia ip, survival T/C
Assay: NCI In Vivo Anticancer Drug Screen. Data for tumor model L1210 Leukemia (intraperitoneal) in CD2F1 (CDF1) mice
Conditions: higher = longer survival
Method in brief: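 Transplantable tumor in mice; compound-treated vs vehicle-treated groups. Read-out = treated/control ratio of the measured endpoint.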

[1] = endpoint: mean survival time, dose: 25.0 mg/kg/injection, schedule: Q01DX009 (ip), vehicle: saline with Tween-80
[2] = endpoint: mean survival time, dose: 50.0 mg/kg/injection, schedule: Q01DX009 (ip), vehicle: saline with Tween-80
[3] = endpoint: mean survival time, dose: 100.0 mg/kg/injection, schedule: Q01DX009 (ip), vehicle: saline with Tween-80
[4] = endpoint: mean survival time, dose: 200.0 mg/kg/injection, schedule: Q01DX009 (ip), vehicle: saline with Tween-80
[5] = endpoint: mean survival time, dose: 100.0 mg/kg/injection, schedule: Q04DX003 (ip), vehicle: saline
[6] = endpoint: mean survival time, dose: 400.0 mg/kg/injection, schedule: Q01DX009 (ip), vehicle: saline with Tween-80
[7] = endpoint: mean survival time, dose: 100.0 mg/kg/injection, schedule: Q01DX001 (ip), vehicle: saline
[8] = endpoint: mean survival time, dose: 25.0 mg/kg/injection, schedule: Q04DX003 (ip), vehicle: saline

Measured: T/C

[NH-]C(CCC(N)=O)C(=O)O.[NH-]C(CCC(N)=O)C(=O)O.[Pt+2] (configuration not stated)
inactive: endpoint: mean survival time, dose: 3.13 mg/kg/injection, schedule: Q04DX003 (ip), vehicle: distilled water + Tween-80 103 % of control | endpoint: mean survival time, dose: 6.25 mg/kg/injection, schedule: Q04DX003 (ip), vehicle: distilled water + Tween-80 104 % of control | endpoint: mean survival time, dose: 12.5 mg/kg/injection, schedule: Q04DX003 (ip), vehicle: distilled water + Tween-80 110 % of control | endpoint: mean survival time, dose: 25.0 mg/kg/injection, schedule: Q04DX003 (ip), vehicle: distilled water + Tween-80 110 % of control | endpoint: mean survival time, dose: 50.0 mg/kg/injection, schedule: Q04DX003 (ip), vehicle: distilled water + Tween-80 95 % of control | endpoint: mean survival time, dose: 100.0 mg/kg/injection, schedule: Q04DX003 (ip), vehicle: distilled water + Tween-80 104 % of control | endpoint: mean survival time, dose: 200.0 mg/kg/injection, schedule: Q04DX003 (ip), vehicle: distilled water + Tween-80 98 % of control

CCNc1ncnc2nncnc12
inactive: endpoint: mean survival time, dose: 100.0 mg/kg/injection, schedule: Q01DX001 (ip), vehicle: carboxymethylcellulose (CMC) 98 % of control

COc1cccc2c1C(=O)c1c(O)c3c(c(O)c1C2=O)C[C@@](O)(C(=O)COC(=O)c1ccccc1)C[C@@H]3OC1CC(N)C(O)C(C)O1 (some centres not stated)
inactive: endpoint: mean survival time, dose: 0.5 mg/kg/injection, schedule: Q01DX009 (ip), vehicle: saline sonified 122 % of control | endpoint: mean survival time, dose: 1.3 mg/kg/injection, schedule: Q04DX003 (ip), vehicle: Klucel (hydroxypropylcellulose) (HPC) 124 % of control

Cc1cccc(C)c1C1=NCCN1
inactive: endpoint: mean survival time, dose: 12.5 mg/kg/injection, schedule: Q01DX009 (ip), vehicle: saline with Tween-80 98 % of control | [1] 98 % of control | [2] 98 % of control

C=CC/C=C/C(C)(C)C
inactive: [2] 103 % of control | [3] 100 % of control | [4] 100 % of control

CN(C)C(=S)SCC(=O)O
inactive: [5] 95 % of control | endpoint: mean survival time, dose: 200.0 mg/kg/injection, schedule: Q04DX003 (ip), vehicle: saline 96 % of control | endpoint: mean survival time, dose: 400.0 mg/kg/injection, schedule: Q04DX003 (ip), vehicle: saline 102 % of control

O=C1CSCc2c1ccc1ccccc21
inactive: [3] 98 % of control | [4] 95 % of control | [6] 96 % of control

COc1cc([N+](=O)[O-])c2nc(/C=N/NC(N)=S)ccc2c1
inactive: [7] 89 % of control

CC([NH-])CC[NH-].[I][Pt+2][I] (configuration not stated)
inactive: endpoint: mean survival time, dose: 12.5 mg/kg/injection, schedule: Q04DX003 (ip), vehicle: saline with Tween-80 118 % of control | endpoint: mean survival time, dose: 25.0 mg/kg/injection, schedule: Q04DX003 (ip), vehicle: saline with Tween-80 124 % of control | endpoint: mean survival time, dose: 50.0 mg/kg/injection, schedule: Q04DX003 (ip), vehicle: saline with Tween-80 109 % of control

CC(=O)OCC1OC(n2nc(C#N)c(C#N)n2)C(OC(C)=O)C1OC(C)=O (configuration not stated)
inactive: endpoint: mean survival time, dose: 12.5 mg/kg/injection, schedule: Q01DX005 (ip), vehicle: distilled water + Tween-80 106 % of control | endpoint: mean survival time, dose: 25.0 mg/kg/injection, schedule: Q01DX005 (ip), vehicle: distilled water + Tween-80 101 % of control and 106 % of control | endpoint: mean survival time, dose: 50.0 mg/kg/injection, schedule: Q01DX005 (ip), vehicle: distilled water + Tween-80 98 % of control and 112 % of control | endpoint: mean survival time, dose: 100.0 mg/kg/injection, schedule: Q01DX005 (ip), vehicle: distilled water + Tween-80 115 % of control and 104 % of control | endpoint: mean survival time, dose: 200.0 mg/kg/injection, schedule: Q01DX005 (ip), vehicle: distilled water + Tween-80 121 % of control and 104 % of control | endpoint: mean survival time, dose: 400.0 mg/kg/injection, schedule: Q01DX005 (ip), vehicle: distilled water + Tween-80 106 % of control

Nc1nc(N)c2nc(CNc3ccc(C(=O)NC(CCC(=O)NC(CCC(=O)O)C(=O)O)C(=O)O)cc3)cnc2n1 (configuration not stated)
inactive: endpoint: mean survival time, dose: 0.7 mg/kg/injection, schedule: Q01DX009 (ip), vehicle: sodium bicarbonate 96 % of control | endpoint: mean survival time, dose: 1.1 mg/kg/injection, schedule: Q01DX009 (ip), vehicle: sodium bicarbonate 92 % of control

CC(=O)OC12C=C(C)C(C3C(=O)OC(=O)C31)C(C)(C)C2 (configuration not stated)
inactive: [7] 103 % of control | endpoint: mean survival time, dose: 200.0 mg/kg/injection, schedule: Q01DX001 (ip), vehicle: saline 101 % of control

N#CC1c2ccccc2C=NN1C(=O)N(c1ccccc1)c1ccccc1 (configuration not stated)
inactive: endpoint: mean survival time, dose: 100.0 mg/kg/injection, schedule: Q04DX003 (ip), vehicle: other 103 % of control | endpoint: mean survival time, dose: 200.0 mg/kg/injection, schedule: Q04DX003 (ip), vehicle: other 105 % of control | endpoint: mean survival time, dose: 400.0 mg/kg/injection, schedule: Q04DX003 (ip), vehicle: other 105 % of control

COc1ccc2c(c1O)CNCC2c1ccc(O)c(C)c1 (configuration not stated)
inactive: endpoint: mean survival time, dose: 75.0 mg/kg/injection, schedule: Q01DX001 (ip), vehicle: saline 98 % of control

CC(C)(C)NC(C1=CC(C)(C)c2ccccc2C1=O)c1ccccc1 (configuration not stated)
inactive: endpoint: median survival time, dose: 50.0 mg/kg/injection, schedule: Q01DX009 (ip), vehicle: Klucel (hydroxypropylcellulose) (HPC) 101 % of control | endpoint: median survival time, dose: 100.0 mg/kg/injection, schedule: Q01DX009 (ip), vehicle: Klucel (hydroxypropylcellulose) (HPC) 101 % of control | endpoint: median survival time, dose: 200.0 mg/kg/injection, schedule: Q01DX009 (ip), vehicle: Klucel (hydroxypropylcellulose) (HPC) 101 % of control

CCC(=O)c1ccc2c(c1)N(C(C)CN(C)C)c1ccccc1S2 (configuration not stated)
inactive: [8] 97 % of control | endpoint: mean survival time, dose: 50.0 mg/kg/injection, schedule: Q04DX003 (ip), vehicle: saline 97 % of control | [5] 101 % of control

CC[N+](CC)=C1SCCCS1
inactive: endpoint: mean survival time, dose: 6.25 mg/kg/injection, schedule: Q04DX003 (ip), vehicle: saline 100 % of control | endpoint: mean survival time, dose: 12.5 mg/kg/injection, schedule: Q04DX003 (ip), vehicle: saline 100 % of control | [8] 100 % of control

CC(=O)OCC(O)C(O)C(O)C(O)CO (configuration not stated)
inactive: [3] 109 % of control | [4] 94 % of control | [6] 96 % of control

COC(=O)C1(C)CCCC2(C)C1CCC13OCC(CC21)C(=C(C)C)C3OC(C)=O (configuration not stated)
inactive: endpoint: mean survival time, dose: 100.0 mg/kg/injection, schedule: Q04DX003 (ip), vehicle: saline with Tween-80 100 % of control | endpoint: mean survival time, dose: 200.0 mg/kg/injection, schedule: Q04DX003 (ip), vehicle: saline with Tween-80 95 % of control | endpoint: mean survival time, dose: 400.0 mg/kg/injection, schedule: Q04DX003 (ip), vehicle: saline with Tween-80 100 % of control

C=C(C)C12CC(C)C34OC5(CCCCCCCC(C)C6C(C)C(OC(=O)c7ccccc7)C(O)(C(O)C7(COC(=O)CCCCCCCCCCCCCCC)OC7C3C1O5)C64)O2 (configuration not stated)
inactive: endpoint: mean survival time, dose: 1.5 micrograms/kg/injection, schedule: Q01DX009 (ip), vehicle: saline 103 % of control | endpoint: mean survival time, dose: 3.1 micrograms/kg/injection, schedule: Q01DX009 (ip), vehicle: saline 104 % of control | endpoint: mean survival time, dose: 6.2 micrograms/kg/injection, schedule: Q01DX009 (ip), vehicle: saline 97 % of control | endpoint: mean survival time, dose: 12.5 micrograms/kg/injection, schedule: Q01DX009 (ip), vehicle: saline 104 % of control | endpoint: mean survival time, dose: 25.0 micrograms/kg/injection, schedule: Q01DX009 (ip), vehicle: saline 95 % of control | endpoint: mean survival time, dose: 50.0 micrograms/kg/injection, schedule: Q01DX009 (ip), vehicle: saline 101 % of control

[C-]#[O+].[C-]#[O+].[C-]#[O+].[C-]#[O+].[CH3][Sn]([CH3])[CH3].[Co]
inactive: endpoint: mean survival time, dose: 0.02 mg/kg/injection, schedule: Q01DX009 (ip), vehicle: saline 100 % of control | endpoint: mean survival time, dose: 0.04 mg/kg/injection, schedule: Q01DX009 (ip), vehicle: saline 102 % of control | endpoint: mean survival time, dose: 0.09 mg/kg/injection, schedule: Q01DX009 (ip), vehicle: saline 100 % of control and 105 % of control | endpoint: mean survival time, dose: 0.39 mg/kg/injection, schedule: Q01DX009 (ip), vehicle: saline 86 % of control | endpoint: mean survival time, dose: 0.78 mg/kg/injection, schedule: Q01DX009 (ip), vehicle: saline 107 % of control

O=C1C=CC(=O)c2c(Cl)ccc(O)c21
inactive: endpoint: mean survival time, dose: 3.13 mg/kg/injection, schedule: Q04DX002 (ip), vehicle: other 102 % of control | endpoint: mean survival time, dose: 6.25 mg/kg/injection, schedule: Q04DX002 (ip), vehicle: other 102 % of control | endpoint: mean survival time, dose: 12.5 mg/kg/injection, schedule: Q04DX002 (ip), vehicle: other 96 % of control and 102 % of control

O=[N+]([O-])c1cccc2c1cc([N+](=O)[O-])c1cccnc12
inactive: endpoint: mean survival time, dose: 25.0 mg/kg/injection, schedule: Q04DX002 (ip), vehicle: saline with Tween-80 98 % of control | endpoint: mean survival time, dose: 50.0 mg/kg/injection, schedule: Q04DX002 (ip), vehicle: saline with Tween-80 98 % of control | endpoint: mean survival time, dose: 100.0 mg/kg/injection, schedule: Q04DX002 (ip), vehicle: saline with Tween-80 98 % of control

c1ccc(C2=C(c3ccccc3)OC(c3ccccc3)=C(c3ccccc3)O2)cc1
inactive: [1] 92 % of control | endpoint: mean survival time, dose: 50.0 mg/kg/injection, schedule: Q01DX001 (ip), vehicle: saline with Tween-80 87 % of control | [2] 102 % of control | endpoint: mean survival time, dose: 100.0 mg/kg/injection, schedule: Q01DX001 (ip), vehicle: saline with Tween-80 89 % of control | [3] 88 % of control

Reference: PubChem BioAssay AID256 (DTP/NCI, 2004)
